Measurements reported in patent US20080146555A1, “Uses of Kinase Inhibitors and Compositions Thereof” (GPC Biotech, Inc, priority 2004, published 2008).
Values joined by “and” are separate entries in the source; they are usually repeats but may differ in a detail not shown here. Equal values may be shown once.

How the values were obtained:
CEM/C2 = assay: SRB cytotoxicity, camptothecin resistant cells; type: cell-based, human
Method: (§1) In these experiments, the P-glycoprotein expressing NCI-Adr resistant subline (Vickers et al., 1989. Mol Endocrinology 3 (1):157-164) was used. […] Briefly, cells were plated in 96 well dishes 24 hours prior to compound addition. Where noted, they were exposed to verapamil for 4 hours prior to compound addition and then throughout the treatment period (72 hours). The assay was terminated with the addition of cold TCA to a final concentration of 10% and the plates were incubated for one hour at 4° C. The plates were then washed 5 times with water and 100 μl of a Sulforhodamine B solution (4%) was added to each well. The plate was then incubated for 10 minutes at room temperature before removal of unbound dye by washing with 1% acetic acid.
(§2) The Camptothecin resistant CEM/C2 cells were derived from the T lymphoblastoid leukemia cell line CCRF/CEM by selection in the presence of Camptothecin in vitro (Kapoor et al., 1995. Oncology Research 7; 83-95, ATCC).
(§3) The effects of A37 and B16 were evaluated in the CCRF/CEM and CEM/C2 cells using the same SRB assay as described above, with 72-hour drug exposure.

CEM = assay: SRB cytotoxicity, CEM parental cells; type: cell-based; settings: Homo sapiens, CCRF-CEM, 72 h
Method: as §1, §2, §3

A129 = assay: SRB cytotoxicity, A129 parental cells; type: cell-based, human; settings: 72 h
Method: as §1
The parental non-mutated cell line A129 was used as a control.

A129 cp80 = assay: SRB cytotoxicity, cisplatin resistant cells; type: cell-based, human
HCT-116 cells [1] = assay: Calcein AM viability assay, HCT-116; type: cell-based; settings: Homo sapiens
Method: (§4) The potency of the subject kinase inhibitors, as measured by loss of cellular viability, was determined with the Calcein AM assay (Molecular Probes). Calcein AM is a substrate of intracellular esterases, which is cleaved only in viable cells to generate a fluorescent product that can be quantified with a fluorescent plate reader. The fluorescent signal is proportional to the number of viable cells, and thus loss of signal in response to the exposure of cells to the subject kinase inhibitors correlates with a loss of viability. This assay not only distinguishes cell cycle arrest, in which cells may still by viable, from loss of viability, and is thus well suited for the evaluation of the subject kinase inhibitors. A compound that is a potent cytotoxic agent may cause significant loss of cell viability in such an assay.
(§5) Cellular IC50's were determined in the human colorectal carcinoma cell line, HCT-116, and the normal human fibroblast, IMR90. Protein adjusted IC50's were also determined in HCT-116. Results of such viability assays are presented in Table 2 (HCT-116 (viability/protein adjusted) and IMR-90). IC50's (μM, non-protein adjusted) for the viability assay against HCT-116 cells are shown for further compounds of the invention in Table 4.
(§6) HCT-116 or IMR90 cells were recovered from sub-confluent plates by trypsinization and 1,000 or 4,000 cells, respectively, were plated in 24-well dishes and incubated overnight at 37° C., 5% CO2. HCT-116 cells were cultured in RPMI-1640, 10% FCS, and IMR90 cells were cultured in Minimum Essential Medium-alpha, 10% FCS. After overnight incubation to allow adherence, the media was aspirated from each well and replaced with media containing a test compound at a concentration from 0 to 250 nM, spanning a total of 7 doses. The plates were returned to the incubator and cultured for an additional 72 hours (3 days). […] After 72-hours incubation with the test compound, the cells were washed twice with 1×PBS, taking special care to remove all residual buffer.
(§7) A 5 μM Calcein AM solution was prepared by dissolving a 50 μg aliquot of Calcein (Molecular Probes catalog #C3100) in 50 μl DMSO. After the Calcein had completely dissolved (10 minutes at room temperature), it was diluted into 10 ml PBS. Calcein/PBS (0.5 ml) was added to each well. The plates were incubated for 75 minutes at 37° C. (protected from light) and the fluorescent signal was read on a fluorescent plate reader (excitation 485/20 and emission 530/25).

[2] = target: protein kinase C (mixed isozymes); assay: Protein kinase C TCA precipitation assay; type: biochemical, rat; settings: Table 3; read-out: PKC IC50
Method: Enzymes: Cdc2/cyclin B was obtained from commercial sources. Cdk2/his-cyclin Eshort was expressed in Sf9 cells. Cdk2/cyclin A, cdk4/cyclin D1, and cdk6/cyclin D2 were expressed in Sf9 cells. Protein kinase A (catalytic subunit, from bovine heart) and protein kinase C (mixed isozymes from rat brain) were obtained from commercial sources.
Protein kinase C and protein kinase A were assayed using a TCA precipitation assay with Histone H1 as a substrate. For protein kinase A, the final assay contained 50 mM Tris, 10 mM MgCl2, 1 mM dithiothreitol, pH 7.5, 12 μM adenosine triphosphate, 10% (v/v) dimethylsulfoxide (from compounds), 20 μg Histone H1, 2 μCi [γ-^32P] adenosine triphosphate, 0.2 U protein kinase A in a 100 μL assay. A protein kinase C assay contained 50 mM Tris, 10 mM MgCl2, 1 mM dithiothreitol, 0.8 mM CaCl2, pH 7.5, 5 μM adenosine triphosphate, 10% (v/v) dimethylsulfoxide (from compounds), 20 μg Histone H1, 2 μCi [γ-^32P] adenosine triphosphate, 0.01 U protein kinase C in a 50 μL assay. The assays were started by the addition of enzyme, allowed to react for 10 min at 30° C., and stopped by adding 0.4 volumes of 237 mM disodium ethylenediamine tetraacetate, 105 mM adenosine triphosphate, pH 8.0. […] The filters were washed ten times with 25% (w/v) trichloroacetic acid, and the amount of incorporated [^32P]phosphate was determined by adding 100 μl Microscint and scintillation counting.

HCT-116 cells [3] = assay: Clonogenic survival assay with HCT-116 cells; type: cell-based; settings: Homo sapiens
Method: This assay was used to determine the concentration of a compound that results in irreversible loss of viability after a specified period of exposure. Essentially, cells are exposed to compound for a period of […], and are then transferred to compound-free growth medium. After continued incubation in the compound-free medium for a number of days, the number of colonies recovered is counted as an estimate of the number of surviving cells.
Media (RPMI-1640, 10% FCS, pen/strep) was pre-warmed to 37° C. in a water bath. Cells were incubated and grown at 37° C., 5% CO2. Cells were recovered by trypsinization from sub-confluent plates and counted using a hemocytometer. 1×10^4 cells were plated in 25 mls of media in a 15 cm tissue culture dish. […] were set up for each test compound, and were incubated overnight at 37° C. The compound was diluted into media at 7 concentrations and the media on the cells was replaced with that containing the test compound. Two plates were set up for each concentration of the compound to be tested, as well as two control plates without compound. Plates were incubated as above for […], media was removed and replaced with fresh media, and the plates were incubated an additional 7 days and washed with PBS. Colonies were stained with crystal violet solution (0.4% crystal violet, 20% ethanol) for 5 minutes, washed twice with distilled water, and counted.

[4] = system: adriamycin resistant cell line (ADR-res); assay: NCI panel, adriamycin resistant cell line, SRB assay; type: cell-based; settings: Homo sapiens, 48 h
Excerpt: (§8) The evaluation of compounds at the National Cancer Institute in their panel of 60 cell lines provides a wealth of information regarding efficacy in a wide range of tumor types and genetic backgrounds. Included within this panel are cell lines derived from leukemia, melanoma and cancers of the lung, colon, brain, ovary, breast, prostate and kidney. Use of this panel provides a measure of the efficacy of compounds in cells with alterations in many genes that are associated with neoplastic transformation including p53 and Her2/Neu as well as those involved in metabolism and those which confer multi-drug resistance. The data generated in these cell lines with the protocol described below can be used to evaluate the activity of compounds.
(§9) Cells were grown in RPMI-1640 10% FCS and plated in 96 well micro-titer plates at densities ranging from 5,000 to 40,000 cells/well. The plates were incubated for 24 hours at 37° C., 5% CO2 for 24 hours. Media containing twice the desired final concentration of the compound (5 doses spanning 4 logs) was prepared and 100 μl was added to each well containing 100 μl media plus cells to yield the desired final concentration. The plates were then incubated for an additional 48 hours.
(§10) The effect of the compound on cellular viability was determined with the Sulforhodamine B (SRB) assay, which measures total protein. Cells were fixed with cold TCA to a final concentration of 10% and incubated at 4° C. for 60 minutes. The supernatant was discarded and the plates were washed five times with water and air-dried. SRB solution at […] in 1% acetic acid was added to each well and the plates were incubated for 10 minutes at room temperature. The plates were washed five times with 1% acetic acid and air-dried. The bound stain was solubilized with 10 mM trizma base and the absorbance was read on a plate reader at […].

[5] = system: NCI panel of 60 cell lines; assay: cells; settings: Homo sapiens, 60 cell, 48 h, read-out: NCI panel MG-MID (Mean-Graph Mid-point, average IC50 over panel), 48 h, SRB; IC50 <10 nM counted as 10 nM
Excerpt: as §8, §9, §10

[6] = system: normal human fibroblast, IMR90; assay: Calcein AM viability assay, IMR90; type: cell-based; settings: IMR-90, Calcein AM, 72 h
Method: as §4, §5, §6, §7

CDKs = assay: Kinase panel, CDKs (average/range); type: biochemical; settings: comparison drug; read-out: average IC50 for CDK1, CDK2, and CDK4
HT29/mit = assay: SRB cytotoxicity, mitoxanthrone resistant cells; type: cell-based, human
Method: as §1, with “acid. The bound dye was solubilized with 10 mM Trizma base and the absorbance read at OD570.” for “acid.”
(§11) The parental non-mutated cell line HT29 was used as a control.
(§12) Z. Cytotoxicity was measured using the SRB assay according to Shekan et al. as described above in Example 1A.

HT29 = assay: SRB cytotoxicity, HT29 parental cells; type: cell-based; settings: Homo sapiens, HT-29, 72 h
Method: as §1, §11, §12

NCI-Adr resistant = assay: SRB cytotoxicity, P-glycoprotein expressing cells with and without verapamil; type: cell-based; settings: Homo sapiens, NCI/ADR-RES, 72 h, SRB
Method: as §1

1A9-PTX10 = assay: SRB cytotoxicity, tubulin mutated paclitaxel-resistant cells; type: cell-based, human; settings: Homo sapiens, 1A9/ptx-10; 72 h, SRB
Method: as §1
(§13) The tubulin mutated, paclitaxel-resistant human ovarian carcinoma cell line 1A9-PTX10 and its parental paclitaxel-sensitive cell line 1A9 were derived from the A2780 human ovarian carcinoma cell line (J Biol Chem (1997) 272, 17118-17124).

1A9 = assay: SRB cytotoxicity, 1A9 parental cells; type: cell-based; settings: Homo sapiens, 72 h
Method: as §1, §13

CC[C@@]1(O)C(=O)OCc2c1cc1n(c2=O)Cc2cc3ccccc3nc2-1 [Camptothecin, reference compound]
RR (relative resistance) CEM/C2 vs CEM (CEM/C2): 1378 | IC50 (CEM/C2; Homo sapiens, CEM/C2, 72 h, SRB): 4.82 µM | IC50 (CEM): 0.0035 µM

N.N.[Cl][Pt][Cl] [Cisplatin, cis-diamminedichloroplatinum (II), reference compound]
IC50 (A129): 0.324 µM | RR (relative resistance) A129 cp80 vs A129 (A129 cp80): 51.6 | IC50 (A129 cp80; 72 h, SRB): 16.7 µM

CC(C)N1CCN(CCOc2ccc(-c3[nH]nc4c3C(=O)c3c(NC(=O)NN5CCOCC5)cccc3-4)cc2)CC1 [E]
IC50 (HCT-116 cells [1]; HCT-116, 72 h, Calcein AM, 72 h, read-out: HCT-116 IC50 Viability): < 0.1 µM | IC50 (HCT-116 cells [1]; HCT-116, plus 1 mg/ml alpha acidic glycoprotein and 45 mg/ml human serum albumin, read-out: HCT-116 IC50 Protein adjusted): < 1 µM | IC50 [2]: < 10 µM | IC50 (HCT-116 cells [3]; 24 h exposure, read-out: HCT-116 IC50 Clonogenic 24 h): < 0.1 µM | IC50 (HCT-116 cells [3]; 72 h exposure, read-out: HCT-116 IC50 Clonogenic 72 h): < 0.1 µM | IC50 [4]: < 1 µM | IC50 [5]: < 0.1 µM | IC50 [6]: < 0.1 µM

CN1CC[C@H](c2c(O)cc(O)c3c(=O)cc(-c4ccccc4Cl)oc23)[C@H](O)C1 [Flavopiridol, reference compound]
IC50 (CDKs): ~0.65 µM and 0.65 µM

O=C1c2c(O)ccc(O)c2C(=O)c2c(NCCNCCO)ccc(NCCNCCO)c21 [Mitoxanthrone, reference compound]
RR (relative resistance) HT29/mit vs HT29 (HT29/mit): 153.1 | IC50 (HT29/mit; Homo sapiens, HT-29, 72 h, SRB): 188 µM | IC50 (HT29): 1.23 µM

CC(=O)O[C@@]12CO[C@@H]1C[C@H](O)[C@@]1(C)C(=O)[C@H](O)C3=C(C)[C@@H](OC(=O)[C@H](O)[C@@H](NC(=O)OC(C)(C)C)c4ccccc4)C[C@@](O)([C@@H](OC(=O)c4ccccc4)[C@H]21)C3(C)C [Taxotere, N-debenzoyl-N-tert-butoxycarbonyl-10-deacetyl paclitaxel, reference compound]
IC50 (NCI-Adr resistant; verapamil 12.5 μg/ml): 0.0363 µM | IC50 (NCI-Adr resistant; without verapamil): 3.31 µM | IC50 (1A9-PTX10): 0.16 µM | IC50 (1A9): 0.00175 µM
